Results reported in patent US20240207414A1, “DISULFIDE-BASED PRODRUG COMPOUND” (Ludwig-Maximilians-Universitat Munchen, priority 2021, published 2024).

Tests used:
[1] = system: 4T1 Balb/c mouse breast cancer cell line, orthotopic tumor; assay: In vivo mouse tumor model assay P10
Source text: Assay Conditions and Data Representation: Immunocompetent wildtype Balb/c mice were inoculated with 4T1 Balb/c mouse breast cancer cell line orthotopically in the mammary fat pad (2×10^5 cells) and tumor growth was monitored by caliper measurement. The day when all tumors had reached ca. 150 mm^3 was defined as Day 0; on this day the mice were randomised by tumor size into groups of minimum size 5 animals (mean tumor size ca. 200 mm^3), and treated. Treatments were chosen from 0.9% NaCl (“untreated”), the vascular disrupting agent combretastatin A-4 phosphate (CA4P) at 30 mg/kg administered in 100 μL NaCl (“VDA”), compound of the invention P10 at 4 mg/kg administered in 30 μL DMSO (“P10”), or a combination regime involving treatment with VDA and then 6 hours later with P10 (“VDA+P10”). All treatments were administered intraperitoneally (i.p.). CA4P was re-applied to groups “VDA” and […] once at day 7; no P10 treatment was re-applied to either “P10” or “VDA+P10” groups. Tumor volumes were measured as assay readout.

HeLa cells = assay: In vitro cell viability assay P10 (resazurin); format: cell-based; conditions: Homo sapiens, 48 h, read-out: IC50 antiproliferation / cell viability
Procedure: Assay Conditions: Cells were cultured under standard conditions (Gao, L. et al. Cell Chemical Biology 2021, 28, 1-14. https://doi.org/10.1016/j.chembiol.2020.11.007), left to adhere for 24 h, then P10 was added from DMSO stock solution and adjusted to 1% vol DMSO. Cells were incubated under standard conditions for 48 h, then 0.20 volume equivalents of a solution of resazurin in PBS (0.15 mg/mL) were added and incubated for 3 hours, then fluorescence (ex 544 nm, em 590 nm) was detected on a fluorescence platereader. Cell viability (%) is calculated relative to a control experiment with no P10 added, from the fluorescence values.

A549 cells = assay: Cellular reduction assay P12-P16 (FIG. 6); format: cell-based, human; conditions: 10 μM or 40 μM, 1% vol DMSO, cells under ordinary conditions
Procedure: Assay Conditions: A549 cells were cultured under standard conditions (Gao, L. et al. Cell Chemical Biology 2021, 28, 1-14. https://doi.org/10.1016/j.chembiol.2020.11.007), left to adhere for 24 h, then compounds were added to 10 μM or 40 μM with 1% vol DMSO. Fluorescence timecourse measurements were acquired as in the chemoreductant assay, with all conditions in triplicates.
Experimental Results and Discussion: F(t) is the raw fluorescence intensity signal increase in arbitrary units with the same detection settings the probes releasing the same cargo. […] This trend is irrespective of the applied concentration in cells and cellular increase is constant over time. This indicates, that P13-P16 are activated more selectively by specific enzymatic cascades (as e.g. Trx/TrxR), whereas P12 may be activated more unspecifically. Thus, compounds of the invention either have the possibility of being useful by giving selective cargo release in pathologically growing cells or cells under abnormal conditions (P13-P16), or offer novel opportunities of cellular delivery of appended cargoes with optimal response kinetics (P12).

| SMILES | tumor growth (tumor volume), combination with VDA ([1]; CA4P (VDA) 30 mg/kg i.p., then 6 hours later P10 4 mg/kg i.p.) | primary tumor progression (tumor volume) ([1]; single treatment 4 mg/kg i.p., Balb/c mice, 4T1 tumor) | IC50 (HeLa cells) [nM] | cargo release / activation inside cells (raw fluorescence F(t)) (A549 cells) |
| --- | --- | --- | --- | --- |
| O=C(c1cc2cc(OCCCN3CCC3)ccc2[nH]1)N1C[C@@H](CCl)c2c1cc(OC(=O)N1CCC[C@@H]3CSSC[C@@H]31)c1ccccc21 (racemic) [Compound P10, (S)-3-(5-(3-(azetidin-1-yl)propoxy)-1H-indole-2-carbonyl)-1-(chloromethyl)-2,3-dihydro-1H-benzo[e]indol-5-yl (cis)-hexahydro-[1,2]dithiino[4,5-b]pyridine-1(2H)-carboxylate] | still more significantly slows tumor growth | significantly slows primary tumor progression | ~200 |  |
| COc1ccc2c(c1)Oc1cc(OC(=O)N3CCN[C@@H]4CSSC[C@H]43)ccc1C21OC(=O)c2ccccc21 (mixture of isomers) [Compound P12, 3′-methoxy-3-oxo-3H-spiro[isobenzofuran-1,9′-xanthen]-6′-yl-trans-hexahydro-[1,2]dithiino[4,5-b]pyrazine-1(2H)-carboxylate] |  |  |  | substantially releases its cargo inside cells cultured under ordinary conditions |
